Data on 40 compounds can be found in ChEMBL document CHEMBL5376014, “Role of heterocycles in inhibition of VEGFR-2 - a recent update (2019-2022)” (RSC Med Chem, 2024).

Structures are written as SMILES.

Experiment [1] deals with T1, Vascular endothelial growth factor receptor 2 (Homo sapiens, UniProt P35968). Briefly: Inhibition of VEGFR-2 (unknown origin).
Experiment [2] concerns HepG2. Briefly: Cytotoxicity against human HepG2 cells assessed as cell growth inhibition. In kind it is functional, cell-based.
Experiment [3] concerns MCF7. The experiment in a line: Cytotoxicity against human MCF7 cells assessed as cell growth inhibition. It counts as functional, cell-based.
Experiment [4] has as its target T1, Vascular endothelial growth factor receptor 2. Briefly: Inhibition of VEGFR-2 (978 to 1408 residues) (unknown origin) using pEY (4:1) as substrate for 20 min in the presence of ATP by ELISA method. In general terms: An ELISA detects its analyte on a solid surface through an enzyme-linked reagent.
The target is the same in experiment [5]. The experiment in a line: Inhibition of human recombinant VEGFR-2 kinase activity using poly(Glu-Tyr) at 4:1 ratio as substrate incubated for […] by ELISA method.
Experiment [6] shares this target. Briefly: Inhibition of VEGFR-2 (unknown origin) kinase activity using poly(Glu-Tyr) at 4:1 ratio as substrate in presence of ATP incubated for 1 hr by ELISA.
For experiment [7] the target is unchanged. Briefly: Inhibition of human recombinant VEGFR-2 by ELISA method.
Experiment [8] shares this target. The experiment in a line: Inhibition of human recombinant VEGFR-2 in the presence of ATP.
The next experiment deals with HeLa. The experiment in a line: Cytotoxicity against human HeLa cells assessed as reduction in cell viability incubated for 24 hrs by MTT assay. It counts as functional, cell-based. On the technique in general: Tetrazolium dyes change colour on reduction, which living cells bring about.
In the next experiment the test system is A549. The experiment in a line: Cytotoxicity against human A549 cells assessed as reduction in cell viability incubated for 72 hrs by MTT assay. It counts as functional, cell-based. The settings on record: A549, 72 h.
Experiment [9] deals with MDA-MB-231. Briefly: Cytotoxicity against human MDA-MB-231 cells assessed as reduction in cell viability incubated for 72 hrs by MTT assay. The settings on record: MDA-MB-231, 72 h. In kind it is functional, cell-based.
The target in experiment [10] is T1, Vascular endothelial growth factor receptor 2. Briefly: Inhibition of recombinant VEGFR-2 (unknown origin).
Experiment [11] shares this target. Briefly: Inhibition of human recombinant VEGFR-2 kinase activity using poly(Glu-Tyr) at 4:1 ratio as substrate incubated for 60 mins by ELISA.
Experiment [12] shares this target. Briefly: Inhibition of human recombinant VEGFR-2 kinase activity using poly(Glu-Tyr) at 4:1 ratio as substrate incubated for 60 mins by ELISA method.
Experiment [13] shares this target. Briefly: Inhibition of VEGFR-2 (unknown origin) kinase activity using poly(Glu-Tyr) at 4:1 ratio as substrate in presence of ATP incubated for 5 mins by ELISA method.
The target is the same in experiment [14]. Briefly: Inhibition of VEGFR-2 (unknown origin).
The target is the same in experiment [15]. Briefly: Inhibition of human VEGFR-2.
For experiment [16], the system named is HepG2. The experiment in a line: Anticancer activity against human HepG2 cells assessed as reduction in cell viability measured after 72 hrs by MTT assay. It counts as functional, cell-based. The settings on record: HepG2, 72 h.
The target in experiment [17] is T1, Vascular endothelial growth factor receptor 2. Briefly: Inhibition of human recombinant VEGFR-2.
For experiment [18] the target is unchanged. Briefly: Inhibition of human VEGFR-2 kinase activity using poly(Glu-Tyr) at 4:1 ratio as substrate preincubated for 30 mins followed by compound addition incubated for 1 hrs by ELISA.
The nature of experiment [19]: Inhibition of tyrosine kinase in human PANC-1 cells. It counts as cell-based.
In experiment [20] the target is T1, Vascular endothelial growth factor receptor 2. The experiment in a line: Inhibition of human recombinant VEGFR-2 expressed in Sf21 insect cells incubated for 60 mins by ELISA.
Experiment [21] concerns MDA-MB-231. The experiment in a line: Antiproliferative activity against human MDA-MB-231 cells assessed as cell growth inhibition measured after 48 hrs by MTT assay. The settings on record: MDA-MB-231, 48 h. In kind it is functional, cell-based.
The target of experiment [22] is T1, Vascular endothelial growth factor receptor 2. Briefly: Inhibition of VEGFR-2 (unknown origin) incubated for […] by ELISA method.
The test system of experiment [23] is HepG2. The experiment in a line: Antiproliferative activity against human HepG2 cells assessed as reduction in cell viability by MTT assay. It counts as functional, cell-based.
In another experiment the test system is PC-3. The experiment in a line: Antiproliferative activity against human PC-3 cells assessed as inhibition of cell growth incubated for 48 hrs by MTT assay. The settings on record: PC-3, 48 h. In kind it is functional, cell-based.
The test system of experiment [24] is MCF7. Briefly: Antiproliferative activity against human MCF7 cells assessed as reduction in cell viability incubated for 24 hrs by MTT assay. The settings on record: MCF7, 24 h. It counts as functional, cell-based.
Experiment [25] deals with T1, Vascular endothelial growth factor receptor 2. Briefly: Inhibition of recombinant VEGFR-2 (unknown origin). This is another data set of the same source.
In experiment [26] the test system is HepG2. The experiment in a line: Anticancer activity against human HepG2 cells assessed as inhibition of cell growth incubated for 24 hrs by MTT assay. It counts as functional, cell-based. The settings on record: HepG2, 24 h.
Experiment [27] deals with MCF7. Briefly: Anticancer activity against human MCF7 cells assessed as inhibition of cell growth incubated for 24 hrs by MTT assay. In kind it is functional, cell-based. The settings on record: MCF7, 24 h.
Experiment [28] addresses T1, Vascular endothelial growth factor receptor 2. Briefly: Inhibition of VEGFR-2 (unknown origin) incubated for 45 mins by ELISA.

T1 sequence (P35968 whole entry): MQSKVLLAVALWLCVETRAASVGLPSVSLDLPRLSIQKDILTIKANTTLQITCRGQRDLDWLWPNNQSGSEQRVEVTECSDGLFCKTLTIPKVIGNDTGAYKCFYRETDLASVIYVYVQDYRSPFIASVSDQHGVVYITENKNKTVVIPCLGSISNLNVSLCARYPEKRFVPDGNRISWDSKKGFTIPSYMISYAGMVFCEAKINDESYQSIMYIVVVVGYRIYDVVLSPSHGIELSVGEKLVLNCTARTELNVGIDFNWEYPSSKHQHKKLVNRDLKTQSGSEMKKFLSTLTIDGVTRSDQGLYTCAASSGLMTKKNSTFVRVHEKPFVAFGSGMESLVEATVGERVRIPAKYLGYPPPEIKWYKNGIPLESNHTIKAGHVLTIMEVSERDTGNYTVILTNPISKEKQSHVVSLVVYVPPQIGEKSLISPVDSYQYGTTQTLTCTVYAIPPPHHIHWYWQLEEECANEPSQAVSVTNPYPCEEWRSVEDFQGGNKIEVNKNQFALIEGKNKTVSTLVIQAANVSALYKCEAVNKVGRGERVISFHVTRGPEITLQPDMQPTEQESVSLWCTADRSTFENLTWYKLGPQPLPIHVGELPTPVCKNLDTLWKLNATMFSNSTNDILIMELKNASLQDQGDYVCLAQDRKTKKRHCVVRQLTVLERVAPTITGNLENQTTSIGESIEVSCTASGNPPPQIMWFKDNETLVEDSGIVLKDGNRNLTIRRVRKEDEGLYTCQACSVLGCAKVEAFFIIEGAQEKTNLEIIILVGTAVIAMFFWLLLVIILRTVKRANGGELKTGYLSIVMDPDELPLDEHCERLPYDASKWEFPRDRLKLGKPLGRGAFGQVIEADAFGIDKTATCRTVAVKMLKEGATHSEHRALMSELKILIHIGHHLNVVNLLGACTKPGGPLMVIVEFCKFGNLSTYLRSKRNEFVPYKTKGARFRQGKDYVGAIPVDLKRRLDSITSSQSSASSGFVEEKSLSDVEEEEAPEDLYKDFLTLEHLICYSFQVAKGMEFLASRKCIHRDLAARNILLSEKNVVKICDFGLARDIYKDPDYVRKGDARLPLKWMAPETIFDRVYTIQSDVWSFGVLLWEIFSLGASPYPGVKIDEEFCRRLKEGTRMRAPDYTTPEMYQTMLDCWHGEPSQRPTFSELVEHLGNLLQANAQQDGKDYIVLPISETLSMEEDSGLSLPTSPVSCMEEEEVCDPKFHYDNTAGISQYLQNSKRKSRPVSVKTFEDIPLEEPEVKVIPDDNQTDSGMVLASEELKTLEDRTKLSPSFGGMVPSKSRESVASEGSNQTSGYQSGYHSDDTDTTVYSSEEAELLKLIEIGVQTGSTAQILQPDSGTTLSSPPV

As to `COc1cc2ncnc(Oc3ccc(NC(=O)C4(C(=O)Nc5ccc(F)cc5)CC4)cc3F)c2c2c1OCCO2`, it took 3.5 nM to reach half-maximal inhibition in [1] (IC50).
In turn, `COC(C)Oc1cc2ncnc(Oc3ccc(NC(=O)C4(C(=O)Nc5ccc(F)cc5)CC4)cc3F)c2c2c1OCCO2` (stereo not given) came in with an IC50 in experiment [1] of 3.6 nM.
As to `Cc1nc2ccccc2n(CC(=O)Nc2ccc(C(=O)NC(C)(C)C)cc2)c1=O`, the half-inhibitory concentration (IC50) came out at 4500 nM with HepG2 [2] and 7700 nM with MCF7 [3].
Turning to `O=[N+]([O-])c1cccc(-c2nn(-c3ccccc3)cc2C2CC(C3CCCO3)=NN2c2ccccc2)c1` (stereo not given), the IC50 in experiment [4] came out at 910 nM.
Turning to `COc1cc(/C=C/C(=O)c2ccc(N3CCNCC3)cc2)ccc1F`, the IC50 in experiment [5] came out at 570 nM.
For the compound `N#Cc1c(-c2ccc(Cl)cc2)cc(-c2ccc3ccccc3c2)nc1NN`, the IC50 in [6] was 0.25 nM.
Regarding `O=C(CSc1nnc2c3nncn3c3ccccc3n12)Nc1ccc(C(=O)Nc2cncs2)cc1`, the IC50 in experiment [7] was found to be 3100 nM.
As to `NC(=O)CCn1cc(-c2ccc3ncnc(Nc4cc(O)ccc4F)c3c2)nn1`, the IC50 in experiment [8] stood at 12 nM.
With `CC(=O)N1N=C(C2CCCO2)CC1c1cn(-c2ccccc2)nc1-c1cccc([N+](=O)[O-])c1` (stereo not given), the IC50 in [4] came out at 220 nM.
Take `CCOC(=O)CSc1nc2ccc(C)cc2c(=O)n1-c1ccc(F)cc1`: the IC50 worked out at 1260 nM in the experiment on HeLa, 570 nM in the experiment with A549 and 1190 nM in the experiment on MDA-MB-231 [9].
On to `COc1ccc(C2=Nn3c(N/N=C4\C(=O)Nc5ccc(F)cc54)nnc3SC2)cc1`, for which the IC50 in experiment [10] is 435 nM.
As for `CCc1ccc(NC(=O)c2ccc(NC(=O)CN3C(=O)S/C(=C/c4ccccc4)C3=O)cc2)cc1`, the IC50 in experiment [11] was found to be 220 nM.
On to `O=C(/C=C/c1cccc(F)c1)c1ccc(N2CCNCC2)cc1`, for which the IC50 in experiment [5] came out at 800 nM.
For `COc1cc(C2NC(SCC(=O)Nc3ccc(C(C)=O)cc3)=NC(=O)C2C#N)cc(OC)c1OC` (stereo not given), in experiment [12], the IC50 was 199 nM.
Consider `Cc1nc2ccccc2n(CC(=O)Nc2ccc(C(=O)NCc3ccccc3)cc2)c1=O`, for which the IC50 in [13] amounted to 1090 nM.
On to `CC(=O)c1ccc(NC(=O)CSC2=NC(=O)C(C#N)C(c3ccccc3)N2)cc1` (stereo not given), for which the IC50 in experiment [12] stood at 386 nM.
As to `Cc1nc2ccccc2n(CC(=O)Nc2ccc(C(=O)NNC(=O)c3ccccc3O)cc2)c1=O`, the half-inhibitory concentration (IC50) in [13] came to 1190 nM.
In experiment [14], `O=C(N/N=C/c1ccc(Cl)cc1)c1ccc(Nc2ncnc3sc4c(c23)CCCC4)cc1` registered an IC50 of 230 nM.
For the compound `Fc1ccc(Nc2nnc3c4c(cccc24)NC(=S)N3Cc2ccccc2)cc1`, the IC50 in [15] was found to be 210 nM; in the experiment with HepG2 [16] it was 220 nM.
In the case of `N#CCc1nnc(NC(=O)c2ccco2)s1`, the IC50 in experiment [17] stood at 7.4 nM.
Turning to `Cc1ccc(S(=O)(=O)Nc2ccc(-c3cc(-c4cccc(F)c4)c(C#N)c(N)n3)cc2)cc1`, the IC50 in [18] was 3620 nM.
With `COC(C)Oc1cc2ncnc(Oc3ccc(NC(=O)C4(C(=O)Nc5ccc(F)cc5)CC4)cc3)c2c2c1OCCO2` (stereo not given), in [1], half-maximal inhibition (IC50) required 8.8 nM.
Turning to `O=C(NC1=NN2C(=O)/C(=C\c3ccco3)N=C2S1)c1cccs1`, in experiment [19], the IC50 is 9.4 nM.
As to `CC1=NN(c2ccc([N+](=O)[O-])cc2[N+](=O)[O-])C(=O)/C1=C\c1cn(-c2ccccc2)nc1-c1cccc([N+](=O)[O-])c1`, in [4], the IC50 came to 820 nM.
`N=c1cc(N)nc2sc(NC(=O)c3cccs3)nn12`: in experiment [19], 8.2 nM corresponded to half-maximal inhibition (IC50).
For the compound `COc1cc(-c2cc(-c3ccc4ccccc4c3)nc(NN)c2C#N)ccc1O`, the IC50 in experiment [6] was determined as 0.19 nM.
For `NC(=O)CCn1cc(-c2ccc3ncnc(Nc4ccc(F)c(O)c4)c3c2)nn1`, the IC50 in [8] was 64 nM.
`C/C(=N\NC(=O)c1ccc(Nc2ncnc3sc4c(c23)CCCC4)cc1)c1ccccc1` displayed an IC50 in experiment [14] of 360 nM.
Take `CCOc1ccc(Nc2nnc3c4c(cccc24)NC(=S)N3Cc2ccccc2)cc1`: inhibition in experiment [15] was half-maximal at 30 nM (IC50).
With `COc1cc(/C=C2\CCCn3c2nc2c(cnn2C)c3=O)cc(OC)c1OC`, the IC50 in experiment [20] was found to be 13.2 nM; with MDA-MB-231 [21] it was 14.2 nM.
`CCn1c(SCC(=O)NNC(=O)c2ccccc2)nc2ccc([N+](=O)[O-])cc2c1=O`: the IC50 in [22] was found to be 4600 nM; in the experiment with HepG2 [23], 17200 nM; with PC-3, 26100 nM; in the experiment with MCF7 [24] it was 30800 nM.
In [22], `O=C(CSc1nc2ccc([N+](=O)[O-])cc2c(=O)n1-c1ccccc1)NNC(=O)c1ccccc1` came in with an IC50 of 4800 nM.
Consider `O=C(CCSc1nc2ccccc2o1)Nc1ccc(S(=O)(=O)NC(=O)NC2CCCCC2)cc1`, for which, in experiment [25], the IC50 stood at 80 nM.
As to `N#Cc1c(-c2ccc([N+](=O)[O-])cc2)cc(-c2ccc3ccccc3c2)nc1NN`, in experiment [6], the IC50 is 0.34 nM.
`N#C/C(=C\c1cccs1)c1nnc(NC(=O)c2ccco2)s1`: the IC50 in experiment [17] worked out at 7.6 nM.
Regarding `COc1ccc(NC(=O)c2ccc(NC(=O)CSc3nnc4c5nncn5c5ccccc5n34)cc2)cc1`, the IC50 turned out to be 3200 nM in [7], 3300 nM in the experiment with HepG2 [26] and 4400 nM with MCF7 [27].
As to `O=C(CN1C(=O)S/C(=C/c2ccccc2)C1=O)Nc1ccc(C(=O)NCc2ccccc2)cc1`, the IC50 in [11] was found to be 280 nM.
Same read-out and setting: the same measure for `Cc1ccc(NC(=O)c2ccc(NC(=O)CN3C(=O)S/C(=C/c4ccccc4)C3=O)cc2)cc1`: 250 nM.
In turn, `COc1cccc(CNC(=O)CSc2nc3ccccc3c(=O)n2-c2ccc(S(N)(=O)=O)cc2)c1OC` displayed an IC50 in [28] of 240 nM.
The compound `Cc1ccc(C)c(NC(=O)CSc2nc3ccccc3c(=O)n2-c2ccc(S(N)(=O)=O)cc2)c1` yielded an IC50 in [28] of 480 nM.

One may read the IC50 as the midpoint of a concentration-inhibition curve.
